The results in this text go back to ChEMBL document CHEMBL1201862, “PubChem BioAssay data set” (2004).

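Growth conditions: 96-well plates. Treatment: test compound, 48 hours, 5 concentrations. Analysis: linear interpolation between bracketing concentrations; unreached endpoints set to highest concentration. GI50: concentration for 50% inhibition of growth.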 Calls of active or inactive are those of the source. Cut-off read from the data, not from the text of the source: active = GI50 up to about 1.1 µM and inactive = higher.

Common to all, as to experiment: inhibition of tumour cell growth, NCI panel, 48 h
In assay [1] the test system is A549.
Assay [2] concerns CCRF-CEM.
Assay [3] has as its system EKVX.
Assay [4] deals with HCT-116.
Assay [5] has as its system HCT-15.
For assay [6], the system named is HL-60.
Assay [7] concerns HT-29.
The subject of assay [8] is IGROV-1.
Assay [9] concerns Malme-3M.
Assay [10] has as its system SF-295.
In assay [11] the test system is SK-MEL-2.
The test system of assay [12] is SNB-19.
Assay [13] deals with SNB-75.
The test system of assay [14] is K562.
The test system of assay [15] is RPMI-8226.
In assay [16] the test system is U-251.

As for `CC(C)(C)OC(=O)N[C@H]1CC(O)c2ccccc2N(CC(=O)O)C1=O` (some centres not stated), the GI50 was > 100 µM (inactive) in assay [1]; > 100 µM (inactive) in assay [2]; > 100 µM (inactive) in assay [3]; > 100 µM (inactive) in assay [4]; above 100 µM in assay [5]; > 100 µM (inactive) in assay [6]. The GI50 in [7], in assay [8], in assay [9], in assay [10], in [11] and in [12] was > 100 µM (inactive) in each case. Moreover, the GI50 in assay [13] was > 100 µM (inactive).

As for `COc1ccc(NC(=O)C2=CC(=O)c3ccc(O)cc3C2=O)c(OC)c1`, the GI50 is > 100 µM (inactive) in [1]; > 100 µM (inactive) in [2]; > 100 µM (inactive) in assay [3]; > 100 µM (inactive) in assay [4]; above 100 µM in assay [5]; > 100 µM (inactive) in [6]. Moreover, the GI50 in assay [7], in assay [8], in assay [14], in [9], in [15] and in assay [10] was > 100 µM (inactive) each time. The GI50 in assay [12], in assay [13] and in assay [16] was > 100 µM (inactive) each time.

`CC12Oc3ccc4ccccc4c3CC1Cc1c(ccc3ccccc13)O2` (configuration not stated): the GI50 in [1] is > 100 µM (inactive); in [3], > 100 µM (inactive); in assay [4] it was > 100 µM (inactive); in assay [6], > 100 µM (inactive); in [7] it was > 100 µM (inactive); in assay [9] it was 3.44 µM (inactive). Also, the GI50 in [10] is 30 µM (inactive); in assay [11], 48 µM (inactive); in assay [12], 45.5 µM (inactive); in assay [13] it was 7.08 µM (inactive); in assay [16], 50.6 µM (inactive).

Regarding `Nc1ccc(CCN2CCN(c3cccc(C(F)(F)F)c3)CC2)cc1`, the GI50 in assay [1] was > 100 µM (inactive); in assay [2], 5.07 µM (inactive); in assay [3], 55.5 µM (inactive); in [4], > 100 µM (inactive); in assay [5], above 100 µM; in assay [6], 9.51 µM (inactive). Moreover, the GI50 was 70 µM (inactive) in assay [7]; > 100 µM (inactive) in [8]; 70.1 µM (inactive) in assay [14]; > 100 µM (inactive) in assay [9]; 45.2 µM (inactive) in assay [15]; 97.5 µM (inactive) in [10]. The GI50 was > 100 µM (inactive) in [12], > 100 µM (inactive) in [13] and 91.2 µM (inactive) in assay [16].

Turning to `COc1ccc(/C=N/N=C(\N)NO)c(OC)c1C`, the GI50 is 10.9 µM (inactive) in [1]; 29.9 µM (inactive) in [2]; 4.56 µM (inactive) in assay [3]; 24.5 µM (inactive) in [4]; 9.14 µM in [5]; 12.9 µM (inactive) in [7]. The GI50 was 56.4 µM (inactive) in [8]; 10.1 µM (inactive) in [14]; 16.3 µM (inactive) in assay [9]; 23.7 µM (inactive) in assay [15]; 21.1 µM (inactive) in assay [10]; 22.3 µM (inactive) in assay [11]. Also, the GI50 in assay [12] was 65.2 µM (inactive); in assay [16], 45.1 µM (inactive).

For `CSc1nc2c(c(O)c(C)c(=O)n2C2OCC(OC(C)=O)C(OC(C)=O)C2OC(C)=O)c(=O)n1C` (configuration not stated), the GI50 in [1] was > 100 µM (inactive); in assay [2], > 100 µM (inactive); in assay [4] it was > 100 µM (inactive); in [5], above 100 µM; in [6] it was > 100 µM (inactive); in [7] it was > 100 µM (inactive). Moreover, the GI50 in assay [8], in [14], in assay [9], in [15], in [10] and in assay [11] was > 100 µM (inactive) in each case. Besides, the GI50 in [12], in [13] and in assay [16] was > 100 µM (inactive) in each case.

For `Cc1ccc(Cc2c(=O)[nH]nc3ccccc23)cc1`, the GI50 in [1] was > 100 µM (inactive); in assay [2], > 100 µM (inactive); in assay [3], > 100 µM (inactive); in assay [4], > 100 µM (inactive); in [5], above 100 µM; in assay [7] it was > 100 µM (inactive). In addition, the GI50 in assay [8] is > 100 µM (inactive); in assay [14], > 100 µM (inactive); in assay [9], > 100 µM (inactive); in assay [15], > 100 µM (inactive); in [10], 89.5 µM (inactive); in assay [11] it was > 100 µM (inactive). The results for the GI50 in assay [12] and in [13] were > 100 µM (inactive) and 79.8 µM (inactive), respectively.

For the molecule `CCOC(=O)[C@H]1Nc2ccc([N+](=O)[O-])cc2C2c3ccccc3CC21` (some centres not stated), the GI50 in assay [1] was 25.9 µM (inactive); in assay [2], 0.337 µM (active); in [4], 16.7 µM (inactive); in assay [5] it was 15.3 µM; in assay [7], 16 µM (inactive); in assay [8], 28 µM (inactive). Moreover, the GI50 in [14] is 3.89 µM (inactive); in assay [9], 19 µM (inactive); in assay [15] it was 16.9 µM (inactive); in assay [10], 11.2 µM (inactive); in [11], 31.6 µM (inactive); in assay [12], 28.4 µM (inactive). In addition, the figures for the GI50 in assay [13] and in assay [16] were 26 µM (inactive) and 16.1 µM (inactive), respectively.

For the molecule `COc1cccc(NC(=O)CSc2nnc(Cc3ccccc3)o2)c1`, the GI50 is > 100 µM (inactive) in assay [1]; > 100 µM (inactive) in [2]; > 100 µM (inactive) in assay [4]; above 100 µM in [5]; 54.3 µM (inactive) in assay [6]; > 100 µM (inactive) in [7]. The GI50 in assay [8], in [14], in [9], in [15], in assay [10] and in assay [11] was > 100 µM (inactive) each time. Also, the GI50 in [12] is > 100 µM (inactive); in [13], 51.8 µM (inactive); in assay [16], > 100 µM (inactive).

Turning to `CCC1CC(C)=CCN1S(=O)(=O)c1ccc(C)cc1` (configuration not stated), the GI50 in [1] is 21.5 µM (inactive); in assay [2], 4.9 µM (inactive); in [3], 31.8 µM (inactive); in assay [4], 9.82 µM (inactive); in assay [5], 6.52 µM; in assay [6], 3.61 µM (inactive). For the same molecule, the GI50 was 20 µM (inactive) in assay [7]; 7.5 µM (inactive) in assay [14]; 17.3 µM (inactive) in [9]; 3.89 µM (inactive) in assay [15]; 32.7 µM (inactive) in assay [10]; 11 µM (inactive) in assay [11]. Besides, the GI50 was 28.8 µM (inactive) in assay [12] and 13.9 µM (inactive) in [13].

Consider `COc1cc(CC2c3cc(OC)c(OC)cc3CCN2C)c(C(=O)O)cc1OC` (configuration not stated), for which the GI50 in assay [1], in assay [2], in [3], in assay [4], in assay [6] and in [7] was > 100 µM (inactive) throughout. Further, the GI50 in [14], in [9], in [15], in assay [10], in assay [11] and in assay [12] was > 100 µM (inactive) throughout. Besides, the GI50 in [13] and in [16] was > 100 µM (inactive) in each case.

As to `CCOC(=O)/C(=C/c1ccccc1)N(CC)CC`, the GI50 in [1] was > 100 µM (inactive); in [2] it was 62.2 µM (inactive); in [3] it was > 100 µM (inactive); in [4] it was > 100 µM (inactive); in assay [5] it was above 100 µM; in assay [6], > 100 µM (inactive). The GI50 in assay [7], in assay [8], in assay [14], in assay [9], in assay [15] and in [10] was > 100 µM (inactive) in each case. In addition, the GI50 in assay [11], in assay [12] and in assay [16] was > 100 µM (inactive) each time.

On to `COc1cc2cc3c4c(cc(OC)c(OC)c4c2cc1OC)CCN3C(=O)CCCC(=O)O`, for which the GI50 in assay [1], in assay [2], in assay [3], in assay [4], in assay [6] and in assay [7] was > 100 µM (inactive) in each case. In addition, the GI50 in assay [8], in [14], in assay [9], in [15], in assay [10] and in assay [11] was > 100 µM (inactive) in each case. In addition, the GI50 in assay [12] and in [16] was > 100 µM (inactive) throughout.

Regarding `CCOC(=O)/C(O)=C(/C(=O)OC)c1ccc(Cl)cc1`, the GI50 in assay [1] was > 100 µM (inactive); in [2], > 100 µM (inactive); in assay [3], > 100 µM (inactive); in assay [5], above 100 µM; in assay [7], > 100 µM (inactive); in assay [8], > 100 µM (inactive). Also, the GI50 in [14], in assay [9], in assay [15], in [10], in assay [11] and in [12] was > 100 µM (inactive) throughout. Further, the GI50 in assay [13] and in [16] was > 100 µM (inactive) throughout.
